Patent publication US20170027902A1, “Use of a Composition Comprising a Flavonol, A Flavonoid, and a Fatty Acid in the Treatment of Oxidative Injuries Due to Mitochondrial Dysfunction” (priority 2014, published 2017)

Tested on: primary cultures of mouse cortical neurons
Test: Oxygen glucose deprivation (OGD), cell viability by MTT assay
Assay type: cell-based
Conditions: for reduction in OGD-induced neuronal cell death / loss of cell viability (increase in neuronal survival): pretreatment 24 hrs before OGD (3 hrs), MTT 24 hrs after OGD; for reduction of loss in cell viability after OGD: treatment 0.5 hrs before OGD, 1 μg/ml, viability 24 hrs later
Experimental: Embryonic day 16 timed pregnant CD1 out-bred mice were obtained from Charles River Laboratories (Charles River; QC, Canada). Primary cortical neuron cultures were prepared from cerebral cortices of wild type (WT) CD1 mouse embryos as described previously, with the following modifications. Pregnant CD1 females were heavily anaesthetized with isoflurane vapor (Benson Medical Industries, Inc., Markham, ON) before being euthanized by decapitation. The embryonic day 16 (E16) fetuses were immediately removed from the sacrificed pregnant females by cesarean section and placed in ice-cold Hank's Balanced Salt Solution (HBSS) (GIBCO; Invitrogen, Amarillo, Calif.). The meninges were removed from the brains and cortices were isolated under a dissecting microscope. The cortices from each embryo were placed in individual wells of a 24-well plate (Corning; Lowell, Mass.), containing 1 ml of ice-cold PBS (GIBCO; […] Under sterile conditions, the tissue was briefly minced, transferred to 15 ml sterile conical tubes (Corning; Lowell, Mass.) and centrifuged at 350×g for 3 min at room temperature. The dissecting solution was discarded and the cortical neurons were then dissociated trituration with fire-polished glass pipettes followed by incubating in 1 ml of 0.1% trypsin solution (0.1% w/v trypsin (Invitrogen, Amarillo, Calif.) in PBS with 1 mM Mg^2+ and 13 mM glucose) at 37° C. for 15 min. The trypsinization was inhibited by the addition of 0.5 ml of trypsin inhibitor solution that also contained DNase I (0.06% w/v trypsin inhibitor (Invitrogen; Amarillo, Calif.) and 0.01% DNase I (Invitrogen; […] The tubes were mixed briefly and the cells were centrifuged at 350×g for 3 min at room temperature. The trypsin and inhibitor solutions were discarded and each cell pellet was suspended in 1 ml of cortical neuron plating medium (Neurobasal medium (Invitrogen, Amarillo, Calif.) with 10% fetal bovine serum (GIBCO; Invitrogen; Amarillo, Calif.), 2% B27 supplement, 1 mM L-glutamine, and 1% Gentamycin (Invitrogen; […] Cortical neurons were plated in 96-well plates (Corning; Lowell, Mass.) that were pre-coated with poly-D-lysine (PDL; Sigma-Aldrich; Oakville, ON) according to the procedure described by the manufacturer. Briefly, plates were coated immediately before use with 100 μg/ml PDL for 5-10 min (50 μl/well), washed three times with tissue-culture grade water and left to dry for 2 h before cells were introduced. Cortical neurons were plated at a concentration of 1×10^6 cells/ml (100 µl/well) and medium was completely changed the day after plating to serum-free cortical neuron medium (Neurobasal medium with 2% B27 supplement, 5 mM HEPES, 0.5 mM L-glutamine, and 20 μg/ml Gentamycin), which was replaced every 3 days in culture. Cultures were maintained in a humidified, 37° C. incubator with 5% CO2. Experiments were performed on the eighth day in vitro (DIV10). […] Glucose-free medium (glucose-free Dulbecco's Modified Eagle Medium (GBSS, Invitrogen; Amarillo, Calif.) containing either epicatechin or quercetin or epicatechin plus quercetin at concentration of 1 μg/ml or 3 μg/ml or the corresponding DMSO control (0.02% DMSO) was placed in a 96-well plate and equilibrated to 0% oxygen in a modular chamber incubator (Billups-Rothenberg; Del Mar, Calif.). The chamber was flushed for 4 min at 20 l/min with an anoxic gas mixture (5% CO2 and Balanced […]; Dartmouth, NS) using a step-down pressure system and placed in a humidified, 37° C. incubator for 12 h. Cortical neuron medium was replaced with OGD-medium (anoxic and glucose-free) and the cultures were placed in the modular chamber incubator. The chamber was flushed again with anoxic gas and placed inside a humidified, 37° C. incubator for 3 hrs. […] Cell viability was assessed 24 hours after the completion of OGD. The culture media was exchanged for MEM media without phenol red containing 0.5 mg/ml MTT (3-[4,5-dimethylthiazol-2-yl]-2,5-diphenyltetrazolium bromide). […]

[1] = 1 μg/ml total flavonoid (~3 μM; E+Q 0.5 μg/ml each)
[2] = 3 μg/ml total flavonoid (~10 μM; E+Q 1.5 μg/ml each)

SMILES | reduction in OGD-induced neuronal cell death / loss of cell viability (increase in neuronal survival) [1] | reduction in OGD-induced neuronal cell death / loss of cell viability (increase in neuronal survival) (1 μg/ml total flavonoid (~3 μM; E+Q 0.5 μg/ml each), listed as Epicatechin) [%] | reduction in OGD-induced neuronal cell death / loss of cell viability (increase in neuronal survival) [2] | reduction of loss in cell viability after OGD | reduction in OGD-induced neuronal cell death / loss of cell viability (increase in neuronal survival) (3 μg/ml total flavonoid (~10 μM; E+Q 1.5 μg/ml each), listed as quercetin) [%]
Oc1cc(O)c2c(c1)O[C@H](c1ccc(O)c(O)c1)[C@H](O)C2 [E, (2R,3R)-2-(3,4-dihydroxyphenyl)-3,4-dihydro-2H-chromene-3,5,7-triol] | modestly reduced the loss in cell viability | 30 | protected | did not reduce the loss in cell viability | 
O=c1c(O)c(-c2ccc(O)c(O)c2)oc2cc(O)cc(O)c12 [Q] | failed to protect |  | modestly reduced the loss in cell viability | did not reduce the loss in cell viability | 30
